Data as given in ChEMBL document CHEMBL5113380, “Functionalized quinoxalinones as privileged structures with broad-ranging pharmacological activities” (Eur J Med Chem, 2022).
Values after ≈ are worked out from the molar mass of the structure shown. Each block holds one molecule with its values, some of them ahead of it.

Assays:
[1] = Antiproliferative activity against human U-87 MG cells; type: functional, cell-based, U-87MG ATCC
HT-29 = experiment: Antiproliferative activity against human HT-29 cells; type: functional, cell-based
HeLa = experiment: Antiproliferative activity against human HeLa cells; type: functional, cell-based
SMMC-7721 = experiment: Antiproliferative activity against human SMMC-7721 cells; type: functional, cell-based
[2] = molecular target: Human immunodeficiency virus type 1 reverse transcriptase (Human immunodeficiency virus 1) (UniProt Q72547); experiment: (§1) Inhibition of HIV1 reverse transcriptase
[3] = molecular target: Human immunodeficiency virus type 1 reverse transcriptase (Human immunodeficiency virus 1, UniProt Q72547); experiment: as §1
Homo sapiens [4] = species on record: Homo sapiens; experiment: Ratio IC50 for inhibition of JNK1 (unknown origin) over JNK3 (unknown origin)
Homo sapiens [5] = species on record: Homo sapiens; experiment: Ratio IC50 for inhibition of JNK2 (unknown origin) over JNK3 (unknown origin)
[6] = molecular target: Vascular endothelial growth factor receptor 2 (Homo sapiens, UniProt P35968)
MCF7 = experiment: Antiproliferative activity against human MCF7 cells; type: functional, cell-based
HepG2 [7] = experiment: Antiproliferative activity against human HepG2 cells; type: functional, cell-based
HepG2 [8] = experiment: Cell cycle arrest in human HepG2 cells assessed as fold increase in accumulation at G2/M phase; type: functional
HepG2 [9] = experiment: Induction of apoptosis in human HepG2 cells assessed as fold increase in BAX/BCL-2 protein level; type: functional
HepG2 [10] = experiment: Induction of apoptosis in human HepG2 cells assessed as fold increase in caspase-3 protein level; type: functional
HepG2 [11] = experiment: Induction of apoptosis in human HepG2 cells assessed as fold increase in caspase-9 protein level; type: functional
[12] = molecular target: Bromodomain-containing protein 4 (Homo sapiens, UniProt O60885); experiment: Inhibition of BRD4 (unknown origin) using histone-H4 as substrate incubated for 15 mins and measured after 1 hr by AlphaScreen assay
MV4-11 = experiment: Antiproliferative activity against human MV4-11 cells; type: functional, cell-based
HCT-116 = experiment: Antiproliferative activity against human HCT-116 cells after 48 hrs by MTT assay; type: functional, cell-based; conditions: HCT-116, 48 h
CT26 = experiment: Antitumor activity against mouse CT26 cells xenografted in C57BL/6 mouse assessed as tumor suppression rate at 20 mg/kg, ip administered for 14 days; type: functional; conditions: time 14 day
[13] = Inhibition of ALR2 (unknown origin); set-up: species or system Homo sapiens
[14] = Inhibition of ALR1 (unknown origin) relative to control; set-up: concentration or dose not given beside the values; conditions: Homo sapiens; concentration not given here
[15] = Antioxidant activity assessed as DPPH radical scavenging activity at 100 uM; type: functional
[16] = Antioxidant activity assessed as DPPH radical scavenging activity at 50 uM; type: functional
[17] = Inhibition of lipid peroxidation at 100 uM by measuring MDA concentration; type: functional; set-up: Activity: scale not given: the % may be the effect or the level left
[18] = Inhibition of lipid peroxidation at 10 uM by measuring MDA concentration; type: functional; set-up: scale not given: the % may be the effect or the level left
Pseudomonas aeruginosa = experiment: Antibacterial activity against Pseudomonas aeruginosa; type: functional
Candida = experiment: Antifungal activity against Candida species; type: functional
[19] = Binding affinity to estrogen receptor (unknown origin); set-up: species or system Homo sapiens
Homo sapiens [20] = species on record: Homo sapiens; experiment: Binding affinity to estrogen receptor (unknown origin) relative to control
[21] = Binding affinity to Creatine kinase (CK) (unknown origin); set-up: species or system Homo sapiens
Homo sapiens [22] = species on record: Homo sapiens; experiment: Binding affinity to Creatine kinase (CK) (unknown origin) relative to control
[23] = Aqueous solubility of the compound at pH 7.4; type: physicochemical; conditions: buffer
[24] = Metabolic stability in rat liver microsomes assessed as half-life; type: ADME, Microsome
[25] = molecular target: Glutamate [NMDA] receptor; experiment: Displacement of [3H]L-689560 from NMDA receptor (unknown origin); type: protein-complex assay, Homo sapiens
[26] = molecular target: Glutamate [NMDA] receptor; experiment: Displacement of [3H]NMDA from NMDA receptor (unknown origin); type: protein-complex assay, Homo sapiens
[27] = Aqueous solubility of the compound; type: physicochemical; conditions: buffer
RAW264.7 = experiment: Anti-inflammatory activity in mouse RAW264.7 cells assessed as inhibition of LPS-induced NO production at 10 uM after 24 hrs by Griess reagent-based assay; type: functional; set-up: scale not given: the % may be the effect or the level left
Mus musculus = experiment: Antiinflammatory activity against mouse assessed as reduction in carragenan-induced paw edema at 25 mg/kg,po treated 1 hr prior to carrageenan challenge; type: functional; set-up: scale not given: the % may be the effect or the level left
Rattus norvegicus = experiment: Ulcerogenic activity in male albino rat assessed as ulceration at 25 mg/kg, po; type: functional
HeLa S3 = experiment: Cytotoxicity against human HeLa S3 cells; type: functional, cell-based
[28] = molecular target: Glutamate [NMDA] receptor; experiment: Displacement of [3H]DCKA from NMDA receptor (unknown origin); type: protein-complex assay, Homo sapiens
[29] = molecular target: Glutamate [NMDA] receptor; experiment: Displacement of [3H]CGP-39653 from NMDA receptor (unknown origin); type: protein-complex assay, Homo sapiens
[30] = molecular target: Glutamate [NMDA] receptor; experiment: Displacement of [3H]kainic acid from NMDA receptor (unknown origin); type: protein-complex assay, Homo sapiens
[31] = Displacement of [3H]AMPA from NMDA receptor (unknown origin); type: protein-complex assay, Homo sapiens
[32] = molecular target: Glutamate receptor ionotropic AMPA (Homo sapiens, UniProt P42261+P42262+P42263+P48058); experiment: Antagonist activity at AMPA receptor (unknown origin); type: protein-complex assay
Staphylococcus aureus [33] = experiment: Antibacterial activity against methicillin-resistant Staphylococcus aureus; type: functional
Staphylococcus aureus [34] = experiment: Antibacterial activity against methicillin-sensitive Staphylococcus aureus; type: functional
[35] = molecular target: Kappa-type opioid receptor (Homo sapiens, UniProt P41145); experiment: Antagonist at KOR expressed in human U2OS cells measured by High content imaging based beta-arrestin translocation assay; type: cell-based
Chain of Kappa-type opioid receptor (P41145 whole entry): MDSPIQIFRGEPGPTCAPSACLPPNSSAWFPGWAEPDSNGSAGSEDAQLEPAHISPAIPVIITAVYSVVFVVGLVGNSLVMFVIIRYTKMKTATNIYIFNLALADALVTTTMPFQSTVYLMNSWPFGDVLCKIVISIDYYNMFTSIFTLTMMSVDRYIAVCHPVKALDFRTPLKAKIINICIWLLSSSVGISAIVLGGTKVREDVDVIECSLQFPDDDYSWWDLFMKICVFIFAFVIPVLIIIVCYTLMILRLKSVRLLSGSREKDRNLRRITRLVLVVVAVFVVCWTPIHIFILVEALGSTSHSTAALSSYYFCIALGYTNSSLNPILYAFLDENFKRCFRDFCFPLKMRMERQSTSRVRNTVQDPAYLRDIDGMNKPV

Chain of Vascular endothelial growth factor receptor 2 (P35968 whole entry): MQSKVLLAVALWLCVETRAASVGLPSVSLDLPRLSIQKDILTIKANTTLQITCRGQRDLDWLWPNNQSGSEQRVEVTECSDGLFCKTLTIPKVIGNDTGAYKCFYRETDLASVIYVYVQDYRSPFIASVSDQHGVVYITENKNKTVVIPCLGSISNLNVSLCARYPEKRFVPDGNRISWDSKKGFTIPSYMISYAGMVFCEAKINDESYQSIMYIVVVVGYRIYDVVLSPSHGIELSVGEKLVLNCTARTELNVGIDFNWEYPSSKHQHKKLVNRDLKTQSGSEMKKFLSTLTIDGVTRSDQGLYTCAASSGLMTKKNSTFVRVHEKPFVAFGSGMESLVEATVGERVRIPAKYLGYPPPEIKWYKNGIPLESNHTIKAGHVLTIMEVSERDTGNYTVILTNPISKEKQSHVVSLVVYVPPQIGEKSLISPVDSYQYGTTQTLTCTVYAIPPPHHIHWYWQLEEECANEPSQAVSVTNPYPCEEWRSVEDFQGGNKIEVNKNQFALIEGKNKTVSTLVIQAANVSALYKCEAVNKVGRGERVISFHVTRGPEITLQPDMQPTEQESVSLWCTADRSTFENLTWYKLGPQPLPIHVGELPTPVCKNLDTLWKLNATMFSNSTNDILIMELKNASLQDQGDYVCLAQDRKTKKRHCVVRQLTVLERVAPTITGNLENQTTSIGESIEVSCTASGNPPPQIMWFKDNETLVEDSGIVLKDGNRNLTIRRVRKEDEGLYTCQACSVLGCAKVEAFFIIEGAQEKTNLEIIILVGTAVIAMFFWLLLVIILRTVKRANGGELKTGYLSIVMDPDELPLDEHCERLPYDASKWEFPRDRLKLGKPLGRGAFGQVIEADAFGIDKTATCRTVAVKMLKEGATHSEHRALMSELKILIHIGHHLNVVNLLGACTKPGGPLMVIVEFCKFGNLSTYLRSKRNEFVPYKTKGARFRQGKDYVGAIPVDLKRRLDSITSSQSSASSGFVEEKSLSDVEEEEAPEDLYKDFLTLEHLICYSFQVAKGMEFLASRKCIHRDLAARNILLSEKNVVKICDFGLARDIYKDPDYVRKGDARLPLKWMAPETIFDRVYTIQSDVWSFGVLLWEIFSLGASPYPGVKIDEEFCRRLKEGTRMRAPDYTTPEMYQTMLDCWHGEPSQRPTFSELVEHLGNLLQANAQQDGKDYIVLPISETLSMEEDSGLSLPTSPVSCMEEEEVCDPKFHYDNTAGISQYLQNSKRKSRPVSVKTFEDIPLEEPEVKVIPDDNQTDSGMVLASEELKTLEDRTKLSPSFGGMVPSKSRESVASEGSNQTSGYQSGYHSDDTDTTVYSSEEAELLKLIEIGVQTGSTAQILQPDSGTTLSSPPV

IC50 (HT-29): 0.51 µM
IC50 (HeLa): 0.194 µM
IC50 (SMMC-7721): 0.427 µM
Structure (SMILES): COC(=O)c1ccc2c(c1)NCCN2Cc1cc(OC)c(OC)c(OC)c1

IC50 (HT-29): 1.48 µM
IC50 (HeLa): 0.693 µM
IC50 (SMMC-7721): 1.6 µM
Structure (SMILES): COc1ccc2c(c1)[nH]c(=O)c(=O)n2Cc1cc(OC)c(OC)c(OC)c1

Ratio IC50 (Homo sapiens [4]): > 500
Ratio IC50 (Homo sapiens [5]): > 500
Structure (SMILES): N#Cc1ccc2c(c1)N/C(=C\C(=O)c1cccc3ccccc13)C(=O)N2

IC50 [12]: 0.073 µM
IC50 (MV4-11): 0.253 µM
Structure (SMILES): CCC1C(=O)Nc2ccc(-c3c(C)noc3C)cc2N1Cc1ccccc1 (stereo not drawn)

IC50 [13]: 0.566 µM
inhibition [14]: 38.2%
Structure (SMILES): O=C(O)Cn1c(=O)c(Oc2cc(O)cc(O)c2)nc2ccc(Cl)cc21
Activity [15]: 91.3%
Activity [16]: 83.7%
Activity [17]: 55.3%
Activity [18]: 26.6%

MIC (Pseudomonas aeruginosa): 250 mg/L (≈ 1080 µM)
MIC (Candida): 250 mg/L (≈ 1080 µM)
Structure (SMILES): CCOC(=O)c1nc2ccc(C)cc2[nH]c1=O

IC50 [19]: 0.02 µM
Activity (Homo sapiens [20]): 96%
EC50 [21]: 0.169 µM
Activity (Homo sapiens [22]): 36%
solubility [23]: > 0.1 mg/mL
half-life [24]: > 30 min
Structure (SMILES): CC[C@H]1C(=O)N(C)c2ccc(F)cc2N1C(=O)c1ccc(O)cc1O

Ki [28]: 0.0099 µM
IC50 [29]: > 30 µM
IC50 [30]: > 30 µM
IC50 [31]: 4.6 µM
Structure (SMILES): O=C(O)CC1CCc2cc(Br)cc3[nH]c(=O)c(=O)n1c23 (stereo not drawn)

EC50 [32]: 290 µM
Structure (SMILES): Cc1cc2[nH]c(=O)c(=O)n(C[C@H](N)C(=O)O)c2cc1C

Ki [28]: 0.0026 µM
IC50 [29]: > 25 µM
IC50 [30]: > 25 µM
IC50 [31]: 4.6 µM
Structure (SMILES): O=C(CC1CCc2cc(Br)cc3[nH]c(=O)c(=O)n1c23)Nc1ccccc1 (stereo not drawn)

More lines, now with the values behind:

Structure (SMILES): COc1cc2c(Oc3ccc(NC(=O)c4nc5ccccc5n(C5CCCCC5)c4=O)cc3F)ccnc2cc1OCCCN1CCOCC1
IC50 [1]: 0.81 µM

Structure (SMILES): CCOC(=O)N1c2ccccc2NC(=O)[C@]1(C#CC1CC1)C(F)(F)F
IC90 [2]: 0.0048 µM
IC50 [3]: 0.045 µM

Structure (SMILES): O=C1Nc2ccccc2N/C1=C\C(=O)c1cccc2ccccc12
Ratio IC50 (Homo sapiens [4]): > 400
Ratio IC50 (Homo sapiens [5]): > 400

Structure (SMILES): O=C(Cn1c(=O)c2nncn2c2ccccc21)Nc1ccc(C(=O)Nc2ccc(Cl)cc2)cc1
IC50 [6]: 0.0034 µM
IC50 (MCF7): 7.2 µM
IC50 (HepG2 [7]): 4.1 µM
fold change (FC) (HepG2 [8]): 2.14
fold change (FC) (HepG2 [9]): 3.81
fold change (FC) (HepG2 [10]): 1.96
fold change (FC) (HepG2 [11]): 1.82

Structure (SMILES): Cc1noc(C)c1-c1ccc2c(c1)C(c1ccccc1)N(Cc1cn(CCOCCOCCOCCn3cc(CC4C(=O)N(C)c5ccc(-c6c(C)noc6C)cc5N4c4ccccc4)nn3)nn1)C(=O)N2C (stereo not drawn)
IC50 [12]: 0.0077 µM
IC50 (HCT-116): 0.162 µM
Activity (CT26): 56.1%

Structure (SMILES): CCCn1cnc(Cc2c(Cl)c(Cl)cc3nc(O)c(O)nc23)c1
IC50 [25]: 0.0044 µM
IC50 [26]: 0.35 µM
solubility [27]: > 10 mg/mL

Structure (SMILES): Cc1cccc(Oc2nn3c(C(N)=O)nnc3c3ccccc23)c1
Activity (RAW264.7): 10.31%
Activity (Mus musculus): 42.81%
Activity (Rattus norvegicus): 20%

Structure (SMILES): CCC(C)C1Nc2ccccc2NC1=O (stereo not drawn)
IC50 (HeLa S3): 17.2 µM

Structure (SMILES): COc1ccc2ncc(=O)n(CC[C@H]3OC[C@H](NCc4cc5c(cn4)OCCC5)CO3)c2c1
MIC (Staphylococcus aureus [33]): 32 mg/L (≈ 70.7 µM)
MIC (Staphylococcus aureus [34]): 8.16 mg/L (≈ 18 µM)

Structure (SMILES): COc1ccc(N2CCN(CCCNC(=O)CN3C(=O)C4CCCN4c4c(C)ccnc43)CC2)cc1 (stereo not drawn)
IC50 [35]: 2.82 µM
